Assay results as given in US8853412B2, “Pyrrolidinone derivatives as GPR119 modulators for the treatment of diabetes, obesity, dyslipidemia and related disorders” (Sanofi, priority 2012, dated 2014).
pEC50: −log10 of the molar value.

Biological target: T1, human GPR119 (Homo sapiens, UniProt Q8TDV5)
T1 construct: expressed in transfected cells; host or cells: HEK-293 cell line stably expressing recombinant GPR119
T1 sequence (Q8TDV5 1-335): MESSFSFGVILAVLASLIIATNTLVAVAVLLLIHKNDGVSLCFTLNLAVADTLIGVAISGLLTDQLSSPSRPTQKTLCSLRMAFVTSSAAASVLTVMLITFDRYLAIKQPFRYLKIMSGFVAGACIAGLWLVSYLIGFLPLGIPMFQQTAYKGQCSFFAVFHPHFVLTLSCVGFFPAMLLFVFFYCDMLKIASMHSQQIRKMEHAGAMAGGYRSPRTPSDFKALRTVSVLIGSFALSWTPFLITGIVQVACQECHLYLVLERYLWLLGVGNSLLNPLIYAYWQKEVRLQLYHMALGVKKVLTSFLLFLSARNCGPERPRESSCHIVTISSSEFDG
Assay: Functional cellular assay measuring GPR119-mediated cAMP release (HTRF), HEK-293 cells stably expressing recombinant GPR119
Type: cell-based
Settings: cell line expressing human GPR119; cAMP response, 30 minutes at room temperature
Experimental: Functional Cellular Assays Measuring GPR119-Mediated cAMP Release.
Compounds of the invention, which are agonists of GPR119, were characterized by functional assays measuring the cAMP response of HEK-293 cell lines stably expressing recombinant GPR119 from man, mouse or rat, or by using a hamster cell line HIT-T15 expressing GPR119 endogenously. The cAMP content was determined using a kit based on homogenous time-resolved fluorescence (HTRF) from Cisbio Corp. (cat. no. 62AM4PEC). For preparation, cells were split into T175 culture flasks and grown to near confluency in medium (DMEM/10% FCS for HEK-293 cells, and F-12K medium/10% horse serum/2.5% FCS for HIT-T15 cells, respectively). Medium was then removed and cells washed with PBS lacking calcium and magnesium ions, followed by proteinase treatment with accutase (Sigma-Aldrich, cat. no. A6964). Detached cells were washed and resuspended in assay buffer (1×HBSS; 20 mM HEPES, 0.1% BSA, 2 mM IBMX) and cellular density determined. They were then diluted to 400000 cells/mL and 25 μL-aliquots dispensed to the wells of 96-well plates. For measurement, 25 μL of test compound in assay buffer was added and incubated for 30 minutes at room temperature. After addition of HTRF reagents diluted in lysis buffer, the plates were incubated for 1 hour, followed by measuring the fluorescence ratio at 665 vs. 620 nm. Potency of the agonists was quantified by determining the concentrations that caused 50% of the maximal response/activation (EC50). See Table 10 for exemplary data obtained using the cell line expressing human GPR119.

SMILES	pEC50
CC(C)CCOc1ccc(OC2CCN(c3ccc4c(c3)C(=O)CC4)C2=O)cc1 (stereo not drawn) [Example 1-01]	6.41
O=C1CCc2ccc(N3CCC(Oc4ccc(Oc5ccc(F)cc5)cc4)C3=O)cc21 (stereo not drawn) [Example 1-02]	6.05
O=C1CCc2c(F)cc(N3CC[C@@H](Oc4ccc(Oc5ccc(F)cc5)cc4)C3=O)cc21 [Example 1-03]	7.48
O=C1CCc2ccc(N3CC[C@@H](Oc4ccc(Oc5ccccc5)cc4)C3=O)cc21 [Example 1-04]	6.84
O=C1CCc2c(F)cc(N3CC[C@@H](Oc4ccc(OCCC5CC5)cc4)C3=O)cc21 [Example 1-05]	7.35
O=C1CCc2ccc(N3CC[C@@H](Oc4ccc(Oc5ccc(F)cc5)nc4)C3=O)cc21 [Example 1-06]	6.56
O=C1CCc2c(F)cc(N3CC[C@@H](Oc4ccc(Oc5ccc(F)cc5)nc4)C3=O)cc21 [Example 1-07]	7.06
O=C1CCCc2ccc(N3CC[C@@H](Oc4ccc(OCCC5CC5)nc4)C3=O)cc21 [Example 1-10]	6.16
CSc1ccc(O[C@@H]2CCN(c3cc(F)c4c(c3)C(=O)CC4)C2=O)cn1 [Example 1-13]	6.43
CC(C)Sc1ccc(O[C@@H]2CCN(c3cc(F)c4c(c3)C(=O)CC4)C2=O)cn1 [Example 1-14]	7.48
CCSc1ccc(O[C@@H]2CCN(c3cc(F)c4c(c3)C(=O)CC4)C2=O)cn1 [Example 1-15]	7.15
O=C1CCc2c(F)cc(N3CC[C@@H](Oc4ccc(-c5ncc(CO)s5)nc4)C3=O)cc21 [Example 1-16]	5.42
O=C1CCc2c(F)cc(N3CC[C@@H](Oc4ccc(OCc5ccccc5)nc4)C3=O)cc21 [Example 1-17]	7.41
O=C1CCc2ccc(N3CC[C@@H](Oc4ccc(OC5CC5)nc4)C3=O)cc21 [Example 1-20]	7.06
COCC(C)Oc1ccc(O[C@@H]2CCN(c3cc(F)c4c(c3)C(=O)CC4)C2=O)cn1 (stereo partly drawn) [Example 2-05]	7.11

Second part, the molecule after the results:

pEC50	SMILES
8.10	O=C1CCc2c(F)cc(N3CC[C@@H](Oc4ccc(OCCC5CC5)nc4)C3=O)cc21 [Example 1-08, (R)-3-[6-(2-Cyclopropyl-ethoxy)-pyridin-3-yloxv]-1-(7-fluoro-3-oxo-indan-5-yl)-pyrrolidin-2-one]
7.19	O=C1CCc2ccc(N3CC[C@@H](Oc4ccc(OCCC5CC5)nc4)C3=O)cc21 [Example 1-09]
8.10	O=C1CCc2c(F)cc(N3CC[C@@H](Oc4ccc(OCC5CC5)nc4)C3=O)cc21 [Example 1-11, (R)-3-(6-Cyclopropylmethoxy-pyridin-3-yloxy)-1-(7-fluoro-3-oxo-indan-5-yl)-pyrrolidin-2-one]
6.49	O=C1CCc2ccc(N3CC[C@@H](Oc4ccc(OCC5CC5)nc4)C3=O)cc21 [Example 1-12]
6.54	O=C1CCc2c(Br)cc(N3CC[C@@H](Oc4ccc(OCC5CC5)nc4)C3=O)cc21 [Example 1-18]
6.16	Cc1c(N2CC[C@@H](Oc3ccc(OCC4CC4)nc3)C2=O)cc(F)c2c1C(=O)CC2 [Example 1-19]
6.65	COc1ccc(O[C@@H]2CCN(c3cc(F)c4c(c3)C(=O)CC4)C2=O)cn1 [Example 2-01]
7.57	CCCCOc1ccc(O[C@@H]2CCN(c3cc(F)c4c(c3)C(=O)CC4)C2=O)cn1 [Example 2-02]
7.20	O=C1CCc2c(F)cc(N3CC[C@@H](Oc4ccc(OC5CCOC5)nc4)C3=O)cc21 (stereo partly drawn) [Example 2-03]
6.63	CC(C)(CO)COc1ccc(O[C@@H]2CCN(c3cc(F)c4c(c3)C(=O)CC4)C2=O)cn1 [Example 2-04]
7.74	CCCC(C)Oc1ccc(O[C@@H]2CCN(c3cc(F)c4c(c3)C(=O)CC4)C2=O)cn1 (stereo partly drawn) [Example 2-06]
7.35	O=C1CCc2c(F)cc(N3CC[C@@H](Oc4ccc(OC5CCOCC5)nc4)C3=O)cc21 [Example 2-07, (R)-1-(7-Fluoro-3-oxo-indan-5-yl)-3-[6-(tetrahydro-pyran-4-yloxy)-pyridin-3-yloxy]-pyrrolidin-2-one]
